Assay results from PubChem BioAssay AID540265 (Sanford-Burnham Center for Chemical Genomics, 2011).
Activity calls are given as the source filed them. The rule behind the calls is not given here.

What follows are compounds tested against Intestinal-type alkaline phosphatase (Homo sapiens) (UniProt P09923) (assay: human IAP enzyme inhibitors, SAR follow-up, biochemical, luminescence, set 2 (AID 540265)). Settings: purified human IAP, luminescent substrate read-out.
Intestinal-type alkaline phosphatase (Homo sapiens), sequence (P09923 whole entry, looked up): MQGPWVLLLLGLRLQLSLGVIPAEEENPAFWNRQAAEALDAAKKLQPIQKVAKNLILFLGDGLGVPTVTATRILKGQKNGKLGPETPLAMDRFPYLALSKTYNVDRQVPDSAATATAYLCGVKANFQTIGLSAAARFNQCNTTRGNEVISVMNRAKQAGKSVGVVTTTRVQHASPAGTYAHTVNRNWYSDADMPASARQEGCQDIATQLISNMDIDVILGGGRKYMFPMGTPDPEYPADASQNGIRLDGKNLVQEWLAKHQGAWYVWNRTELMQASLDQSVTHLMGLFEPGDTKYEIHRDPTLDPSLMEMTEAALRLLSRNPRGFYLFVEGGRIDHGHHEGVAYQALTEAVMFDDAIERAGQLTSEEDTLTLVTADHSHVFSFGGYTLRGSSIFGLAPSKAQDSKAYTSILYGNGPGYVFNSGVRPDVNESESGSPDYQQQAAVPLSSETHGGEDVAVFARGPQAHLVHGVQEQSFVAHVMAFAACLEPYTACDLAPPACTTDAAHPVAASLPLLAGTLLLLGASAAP
In the case of `Cc1ccc(C)c(NC(=O)CCNS(=O)(=O)c2ccc3[nH]c(=O)oc3c2)c1`, the IC50 is reported as > 100 µM (inactive). For `N#Cc1ccc(CNC(=O)CCNS(=O)(=O)c2ccc3[nH]c(=O)oc3c2)cc1`, the IC50 was > 100 µM (inactive). `O=C(CNS(=O)(=O)c1ccc2[nH]c(=O)oc2c1)Nc1ccc2c(c1)OCO2` was tested, and the IC50 was > 100 µM (inactive). For `O=C(CNS(=O)(=O)c1ccc2[nH]c(=O)oc2c1)NCc1ccc2c(c1)OCO2`, the IC50 was > 100 µM (inactive). With `COc1ccc(NC(=O)CNS(=O)(=O)c2ccc3[nH]c(=O)oc3c2)cc1OC` the IC50 was > 100 µM (inactive).
